Assay results taken from US20210379077A1, “TOPOISOMERASE II CATALYTIC INHIBITOR COMPOUND THERAPEUTICS FOR CANCER TREATMENT, METHODS AND USES” (The University of British Columbia, priority 2018, published 2021).

What was measured:
Topoisomerase II = molecular target: T1, Topoisomerase II (Homo sapiens, UniProt P11388); experiment: Topoisomerase II inhibition screening (supercoiled plasmid relaxation, then kDNA decatenation); format: biochemical; parameters: key to TOP2 Inhib.: Y is an indication that activity was found; details: for relative activity among compounds tested in the screening round: medium throughput relaxation and kDNA decatenation assays
T1 construct: purchased TopoGENE (TopoGEN) TG2000H / kit TG1001
Description: In vitro Topo II activity assays—K-DNA decatenation assays were performed using the human Topo II assay kit (TG1001, TopoGENE™) with Etoposide and ICRF193 as poison and catalytic inhibitors respectively. DNA relaxation assays were performed by incubating the supercoiled pHOT™ plasmid with human Topo IIα (TG2000H™, TopoGENE™) at 37 degrees for one hour. Reactions were stopped by adding 10% SDS, EDTA and proteinase K. Plasmid DNAs were separated on DNA agarose gel and stained with ethidium bromide for visualization.
Medium Throughput Screening Assays A supercoiled plasmid relaxation assay was used as a first, course filter to determine candidate small molecules. Small molecule candidates that were sufficiently active in the first round screening were then subject to the kDNA decatenation assay.
Second Round Screening With the discovered active compounds 19 and 23, a new screen was initiated to look for similar molecules. For this, the shape similarity screening program ROCS™^10 was used The compounds chosen for the ROCS™ search was based on the docking conformation of Compound 23. The ZINC-15 library filtered down to 6 million molecules described previously was used for this screening. The top 62 molecules were hand-picked based on their ROCS™ similarity as well as their docking scores. These molecules were ordered and tested with the same medium throughput assays previously described. A large enrichment in the proportion of active molecules was observed, of close to 10-fold relative to the first round, validating the virtual screening pipeline.

Cancer Cell = experiment: Cancer cell growth inhibition; format: cell-based; parameters: key: Y is an indication that activity was found
Description: BrDU incorporation and cell proliferation assays—Cell proliferation rates were measured by using the CellTitre™ 96 AqueousOne™ kit (Promega™) and bromodeoxyuridine (BrdU) assay kit (Millipore™) according to the manufacturer's protocol, with minor modifications as we have previously described by Li H. et al.^19

K562 cells = experiment: γH2AX Western blot (DNA damage in cells); format: cell-based; details: 10-20 μM, 4 hours
Description: Cytotoxicity was evaluated by measuring LDH levels from cell culture media; (b) K562 cells were treated with either vehicle or 10-20 μM of Top60, Etoposide and ICRF187 for 4 hours. Whole cell lyses were collected to measure γH2AX levels with vinculin as the loading control; (c) K562 cells were treated with 0, 1, 5, 10, 15 and 20 μM of Top60, 20 μM Etoposide or 20 uM ICRF187 for 48 hours. Cell proliferation rates were determined by MTS assays; and (d) K562 cells were treated with 20 μM of Top60, Etoposide or ICRF187 for 0, 24, 48 and 72 hours. Cell proliferation rates were measured by MTS assays. All results were collected from three independent experiments.
Top60 is a catalytic inhibitor of Topo II To verify that our lead Compound 60(Top60), the formation of ds DNA breaks was assayed both in and outside of cells. To assess whether Top60 causes double stranded DNA breaks outside cells, supercoiled plasmid was incubated with and without Top60 in the presence of Topo II (FIG. 1d). […] Furthermore, H2AXγ protein expression was assessed by Western blot to determine if the lead compound could cause DNA damage in cells, and compared to Etoposide as a control (FIG. 3b). […] To determine if Top60 was capable of intercalating DNA, it was incubated with relaxed plasmid at increasing concentrations and compared with m-AMSA, a known intercalator. […]

T1 sequence (P11388 whole entry): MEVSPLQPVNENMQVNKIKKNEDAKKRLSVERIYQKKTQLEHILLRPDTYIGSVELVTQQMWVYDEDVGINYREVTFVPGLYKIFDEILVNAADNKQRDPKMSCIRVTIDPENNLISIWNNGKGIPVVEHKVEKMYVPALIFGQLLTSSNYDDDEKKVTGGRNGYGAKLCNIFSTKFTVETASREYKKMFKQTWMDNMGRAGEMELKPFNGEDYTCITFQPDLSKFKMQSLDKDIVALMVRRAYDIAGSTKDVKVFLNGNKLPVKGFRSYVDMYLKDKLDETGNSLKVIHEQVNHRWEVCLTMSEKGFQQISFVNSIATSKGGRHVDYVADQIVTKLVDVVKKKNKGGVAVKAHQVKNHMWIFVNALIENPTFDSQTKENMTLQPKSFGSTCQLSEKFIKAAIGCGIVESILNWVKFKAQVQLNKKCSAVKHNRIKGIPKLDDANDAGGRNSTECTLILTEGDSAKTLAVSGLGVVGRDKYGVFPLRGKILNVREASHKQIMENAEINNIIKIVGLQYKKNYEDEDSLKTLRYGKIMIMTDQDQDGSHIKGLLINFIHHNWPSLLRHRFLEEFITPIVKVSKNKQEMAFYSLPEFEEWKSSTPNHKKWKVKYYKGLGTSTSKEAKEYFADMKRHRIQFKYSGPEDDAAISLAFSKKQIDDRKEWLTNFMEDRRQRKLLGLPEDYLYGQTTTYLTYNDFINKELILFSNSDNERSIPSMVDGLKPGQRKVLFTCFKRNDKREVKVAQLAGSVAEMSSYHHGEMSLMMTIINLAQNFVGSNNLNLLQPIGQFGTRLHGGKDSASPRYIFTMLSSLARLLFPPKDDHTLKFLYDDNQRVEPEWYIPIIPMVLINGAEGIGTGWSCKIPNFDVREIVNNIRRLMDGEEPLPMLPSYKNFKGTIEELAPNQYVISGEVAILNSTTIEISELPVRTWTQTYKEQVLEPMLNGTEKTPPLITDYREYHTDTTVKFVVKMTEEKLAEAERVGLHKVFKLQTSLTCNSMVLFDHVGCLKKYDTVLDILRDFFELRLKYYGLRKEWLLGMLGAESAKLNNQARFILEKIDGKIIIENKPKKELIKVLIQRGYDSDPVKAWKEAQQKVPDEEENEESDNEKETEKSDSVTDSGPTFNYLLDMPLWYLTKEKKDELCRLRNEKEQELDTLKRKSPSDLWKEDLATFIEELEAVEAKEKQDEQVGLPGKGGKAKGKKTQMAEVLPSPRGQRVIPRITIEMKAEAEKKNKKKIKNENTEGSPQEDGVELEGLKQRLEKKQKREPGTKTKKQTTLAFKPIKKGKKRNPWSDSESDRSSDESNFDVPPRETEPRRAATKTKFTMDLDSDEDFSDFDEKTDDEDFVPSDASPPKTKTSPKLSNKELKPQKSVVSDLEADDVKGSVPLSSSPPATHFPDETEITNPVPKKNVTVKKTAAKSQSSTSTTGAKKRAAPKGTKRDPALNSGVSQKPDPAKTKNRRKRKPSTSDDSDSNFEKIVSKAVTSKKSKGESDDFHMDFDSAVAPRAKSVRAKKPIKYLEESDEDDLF

| Compound | TOP2 Inhib. (Topoisomerase II) | relative activity among compounds tested in the screening round (Topoisomerase II) | Cancer Cell Growth Inhib. (Cancer Cell) | DNA damage in cells by H2AXγ protein level (K562 cells) |
| --- | --- | --- | --- | --- |
| COc1ccc(Sc2ccc(NC(=O)c3ccc[nH]c3=S)cc2)cc1 [Compound 68] | Y | – | Y | – |
| CC(C(C)N1CC(=O)NC(=O)C1)N1CC(=O)NC(=O)C1 (centres unmarked) [ICRF, 4-[2-(3,5-Dioxo-1-piperazinyl)-1-methylpropyl]piperazine-2,6-dione, reference compound] | – | – | – | do not cause DNA damage |
| Cc1ccc(C(=O)Nc2ccc(OC3CCCCC3O)cc2)c(=S)[nH]1 (centres unmarked) [Compound 90] | Y | – | Y | – |
| CC(Nc1ccc(NC(=O)c2ccc[nH]c2=S)cc1Cl)c1ccccc1 (centres unmarked) [Compound 77] | Y | – | Y | – |
| CC(NC(=O)OC(C)(C)C)c1ccc(NC(=O)c2ccc[nH]c2=S)cc1 (centres unmarked) [Compound 67] | Y | – | Y | – |
| O=C(Nc1ccc(NC2CCCC2)cc1)c1ccc[nH]c1=S [Compound 70] | Y | – | Y | – |
| CC(C)CC(=O)Nc1ccc(NC(=O)c2ccc[nH]c2=S)cc1 [Compound 23] | Y | most active | Y | – |
| O=C(Nc1ccc(N2CCN(C(=O)c3ccoc3)CC2)cc1)c1ccc(Cl)c(Cl)c1 [Compound 88] | Y | – | Y | – |

Now from value to molecule, other results behind:

| TOP2 Inhib. (Topoisomerase II) | relative activity among compounds tested in the screening round (Topoisomerase II) | Compound | Cancer Cell Growth Inhib. (Cancer Cell) | DNA damage in cells by H2AXγ protein level (K562 cells) |
| --- | --- | --- | --- | --- |
| Y | – | CCC(=O)Nc1ccc(NC(=O)c2ccc[nH]c2=S)cc1 [Compound 64] | Y | – |
| Y | – | O=C(Nc1ccc(N2CCc3sccc3C2)nc1)c1cccnc1S [Compound 110] | Y | – |
| Y | – | CCC(=O)Nc1ccc(Nc2ccc(NC(=O)c3cccnc3S)cc2)cc1 [Compound 113] | Y | – |
| Y | – | O=C(Nc1ccc(-n2cc(Br)cn2)nc1)c1ccc2ncsc2c1 [Compound 89] | Y | – |
| Y | – | N#Cc1ccc(Oc2ccc(NC(=O)c3ccc[nH]c3=S)cc2)cc1 [Compound 65] | Y | – |
| Y | – | CC(Nc1ccc(NC(=O)c2ccc[nH]c2=S)cc1)c1ccccc1 (centres unmarked) [Compound 115] | Y | – |
| Y | – | CSc1ccccc1C(=O)Nc1ccc(NC(=O)CC(C)C)cc1 [Compound 72] | Y | – |
| Y | – | COc1cccc(Oc2ccc(NC(=O)c3ccc[nH]c3=S)cc2)c1 [Compound 63] | Y | – |
| Y | – | O=C(Nc1ccc(NC(=O)N2CCCCCC2)cc1)c1ccc[nH]c1=S [Compound 75] | Y | – |
| Y | most active | NC1=C(c2nc3ccccc3s2)C(=O)CN1/N=C\c1ccc(O)c(O)c1 [Compound 19] | Y | – |
| Y | – | O=C(Nc1ccc(CN2CCCC2)cc1)c1ccc[nH]c1=S [Compound 62] | Y | – |
| Y | – | COc1ccc(Nc2ccc(NC(=O)c3cccnc3S)cc2)cc1 [Compound 112] | Y | – |
